Experimental data reported in patent publication US20110230428A1, “CERTAIN KYNURENINE-3-MONOOXYGENASE INHIBITORS, PHARMACEUTICAL COMPOSITIONS, AND METHODS OF USE THEREOF” (priority 2008, published 2011).
Counter-ions that a name gives are not always drawn.

Biological target: T1, KMO mouse enzyme (Mus musculus, UniProt Q91WN4)
T1 construct: KMO enzyme prepared at Evotec from mouse liver (4-6 weeks old) via mitochondria isolation; from tissue; host or cells: mouse liver (4-6 weeks old), isolated mitochondria
Experiment: KMO mouse enzyme assay: L-Kynurenine hydroxylation to 3OH-KYN by LC/MS
Assay type: biochemical
Details: compound at 10 μM; KMO from mouse liver mitochondria; read-out: INH.Mouse @ 10 μM
Method: A method of monitoring L-Kynurenine (KYN) hydroxylation to form 3-Hydroxy-Kynurenine (3OH-KYN) by LC/MS is described. Product is quantified by multiple reaction monitoring (MRM method).
• Compound: Stock concentrations: 10 mM in 100% DMSO • Enzyme: KMO enzyme prepared at Evotec from mouse liver (4-6 weeks old) via mitochondria isolation as described in the literature • Substrate: L-Kynurenine (Sigma: Cat# K3750, stock concentration: 10 mM in 100 mM potassium phosphate buffer, pH 7.4)
• Buffer: 100 mM potassium phosphate, pH 7.4, 200 μM NADPH, 0.4 U/ml G6P-DH (Glucose 6-phosphate Dehydrogenase), 3 mM G6P (D-Glucose 6-phosphate) • Assay Volume: 40 μl • Plate Format: 384 well plate, transparent (Matrix) • Read-Out: product (3OH-KYN) quantification using product specific MRM • Reader: LC/MS/MS
• prepare serial dilution (factor 3) of compound in 100% DMSO (top concentration=10 mM, 100% DMSO) • [8 points: 10 mM; 3.33 mM; 1.11 mM; 0.37 mM; 0.12 mM; 0.04 mM; 0.0137 mM; 0.0045 mM, 0.0015 mM] • prepare […] solution of each compound concentration (top concentration 300 μM, 3% DMSO) in assay buffer • [concentrations: 300 μM; 100 μM; 33.3 μM; 11.1 μM; 3.70 μM; 1.23 μM; 0.41 μM; 0.137 μM] • prepare substrate (10 mM) at concentration of 1 mM in assay buffer • assay mix: 4 μl compound/well of each concentration+24 μl assaybuffer/well+8 μl KMO mouse enzyme+4 μl 1 mM substrate (final concentration=100 μM) • [final compound top concentration: 30 μM; 0.3% DMSO] • [final compound bottom concentration: 0.0137 μM; 0.3% DMSO] • positive control: 4 μl 50 μM FCE28833 in assay buffer, 0.5% DMSO [final assay concentration=5 μM]+24 μl assaybuffer/well+8 μl KMO mouse enzyme+4 μl 1 mM substrate [final concentration=100 μM] • negative control: 28 μl assay buffer/well+8 μl KMO mouse enzyme+4 μl 1 mM substrate [final concentration=100 μM] • incubate 40 min at RT • add 40 μl/well 10% trichloro acetic acid in water to stop the assay and precipitate protein • centrifuge plate for 3 min at 4000 rpm • product detection by LC/MS (injection of 20 μl/well, 2 fold overfill of the 10 μl sample loop) Data analysis: IC50's are calculated using automated fitting algorithm (A+Analysis).
Using procedures similar to those described herein, the following compounds were assayed for activity.

T1 sequence (Q91WN4 whole entry): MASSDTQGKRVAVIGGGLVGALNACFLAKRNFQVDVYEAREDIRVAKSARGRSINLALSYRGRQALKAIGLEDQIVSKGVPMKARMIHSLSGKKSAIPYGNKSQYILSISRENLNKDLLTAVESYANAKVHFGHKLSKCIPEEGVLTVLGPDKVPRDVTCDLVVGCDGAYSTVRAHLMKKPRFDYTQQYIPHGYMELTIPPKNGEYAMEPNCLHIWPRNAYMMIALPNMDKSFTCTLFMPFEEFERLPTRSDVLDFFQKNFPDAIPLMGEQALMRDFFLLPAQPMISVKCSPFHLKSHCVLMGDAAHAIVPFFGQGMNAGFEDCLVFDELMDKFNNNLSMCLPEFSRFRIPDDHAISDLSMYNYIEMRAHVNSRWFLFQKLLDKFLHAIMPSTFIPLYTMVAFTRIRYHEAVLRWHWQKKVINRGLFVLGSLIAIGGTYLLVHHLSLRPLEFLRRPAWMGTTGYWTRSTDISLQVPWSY

Row | SMILES | inhibition at 10 µM [%]
1 | CON=C(CCC(=O)Nc1cnccn1)c1ccc(Cl)c(Cl)c1 [4-(3,4-Dichloro-phenyl)-4-methoxyimino-N-pyrazin-2-yl-butyramide] | 98
2 | CO/N=C(\CCC(=O)OC)c1ccc(Cl)c(Cl)c1 [4-(3,4-Dichloro-phenyl)-4-methoxyimino-butyric acid methyl ester] | 106
3 | O=C(O)CC/C(=N\OCc1ccccc1)c1ccc(Cl)c(Cl)c1 [4-Benzyloxyimino-4-(3,4-dichloro-phenyl)-butyric acid] | 61.9
4 | CON=C(CCC(=O)Nc1cncc(F)c1)c1ccc(Cl)c(Cl)c1 [4-(3,4-Dichloro-phenyl)-N-(5-fluoro-pyridin-3-yl)-4-methoxyimino-butyramide] | 90.3
5 | CON=C(CCC(N)=O)c1ccc(Cl)c(Cl)c1 [4-(3,4-Dichloro-phenyl)-4-methoxyimino-butyramide] | 94.9
6 | CON=C(CCCC#N)c1ccc(Cl)c(Cl)c1 [5-(3,4-Dichloro-phenyl)-5-methoxyimino-pentanenitrile] | 71.5
7 | CON=C(CCC(=O)Nc1nncs1)c1ccc(Cl)c(Cl)c1 [4-(3,4-Dichloro-phenyl)-4-methoxyimino-N-[1,3,4]thiadiazol-2-yl-butyramide] | 95.2
8 | CON=C(CCC(=O)OC[C@H](O)[C@H]1OC(=O)C(O)=C1O)c1ccc(Cl)c(Cl)c1 [4-(3,4-Dichloro-phenyl)-4-methoxyimino-butyric acid (S)-2-((R)-3,4-dihydroxy-5-oxo-2,5-dihydro-furan-2-yl)-2-hydroxy-ethyl ester] | 102
9 | CO/N=C(\CCC(=O)NC1CC1)c1ccc(Cl)c(Cl)c1 [N-Cyclopropyl-4-(3,4-dichloro-phenyl)-4-methoxyimino-butyramide] | 100
10 | CON=C(CCCC(=O)OC)c1ccc(Cl)c(Cl)c1 [5-(3,4-Dichloro-phenyl)-5-methoxyimino-pentanoic acid methyl ester] | 61.2
11 | CON=C(CCCC(=O)O)c1ccc(Cl)c(Cl)c1 [5-(3,4-Dichloro-phenyl)-5-methoxyimino-pentanoic acid] | 78.3
12 | CON=C(CCC(=O)NCCN1CCOCC1)c1ccc(Cl)c(Cl)c1 [4-(3,4-Dichloro-phenyl)-4-methoxyimino-N-(2-morpholin-4-yl-ethyl)-butyramide] | 54.6
13 | CO/N=C(\CCC(=O)Nc1cnn(C)c1)c1ccc(Cl)c(Cl)c1 [4-(3,4-Dichloro-phenyl)-4-methoxyimino-N-(1-methyl-1H-pyrazol-4-yl)-butyramide] | 90.5
14 | CON=C(CCC(=O)Nc1ccc(C)nc1)c1ccc(Cl)c(Cl)c1 [4-(3,4-Dichloro-phenyl)-4-methoxyimino-N-(6-methyl-pyridin-3-yl)-butyramide] | 82.9
15 | CO/N=C(\CCC(=O)OC(C)C)c1ccc(Cl)c(Cl)c1 [4-(3,4-Dichloro-phenyl)-4-methoxyimino-butyric acid isopropyl ester] | 102
16 | CON=C(CCC(=O)NCCN(C)C)c1ccc(Cl)c(Cl)c1 [{2-[4-(3,4-Dichloro-phenyl)-4-methoxyimino-butyrylamino]-ethyl}-dimethyl-ammonium trifluoroacetate] | 68
17 | CON=C(CCC(=O)Nc1ccncc1)c1ccc(Cl)c(Cl)c1 [4-(3,4-Dichloro-phenyl)-4-methoxyimino-N-pyridin-4-yl-butyramide] | 76.5
18 | CON=C(CCC(=O)N(C)OC)c1ccc(Cl)c(Cl)c1 [4-(3,4-Dichloro-phenyl)-N-methoxy-4-methoxyimino-N-methyl-butyramide] | 102
19 | CON=C(CCC(=O)Nc1cnccc1C)c1ccc(Cl)c(Cl)c1 [4-(3,4-Dichloro-phenyl)-4-methoxyimino-N-(4-methyl-pyridin-3-yl)-butyramide] | 93.9
20 | CON=C(CCC(=O)Nc1cnc(C)nc1)c1ccc(Cl)c(Cl)c1 [4-(3,4-Dichloro-phenyl)-4-methoxyimino-N-(2-methyl-pyrimidin-5-yl)-butyramide] | 90.4
21 | CON=C(CCC(=O)Nc1cncnc1)c1ccc(Cl)c(Cl)c1 [4-(3,4-Dichloro-phenyl)-4-methoxyimino-N-pyrimidin-5-yl-butyramide] | 98.5

Row | SMILES | inhibition at 10 µM [%]
22 | CON=C(CCC(=O)Nc1ccc(F)nc1)c1ccc(Cl)c(Cl)c1 [4-(3,4-Dichloro-phenyl)-N-(6-fluoro-pyridin-3-yl)-4-methoxyimino-butyramide] | 91.7
23 | CON=C(CCc1noc(C)n1)c1ccc(Cl)c(Cl)c1 (single isomer, unassigned) [1-(3,4-Dichloro-phenyl)-3-(5-methyl-[1,2,4]oxadiazol-3-yl)-propan-1-one O-methyl-oxime] | 87.2
24 | CCNC(=O)CC/C(=N\OC)c1ccc(Cl)c(Cl)c1 [4-(3,4-Dichloro-phenyl)-N-ethyl-4-methoxyimino-butyramide] | 98.9
25 | CC(C)(C)OC(=O)NCCON=C(CCC(=O)O)c1ccc(Cl)c(Cl)c1 [4-[2-tert-Butoxycarbonylamino-ethoxyimino]-4-(3,4-dichloro-phenyl)-butyric acid] | 61.9
26 | CO/N=C(\CCC(=O)Nc1ccon1)c1ccc(Cl)c(Cl)c1 [4-(3,4-Dichloro-phenyl)-N-isoxazol-3-yl-4-methoxyimino-butyramide] | 101
27 | CON=C(CCc1nc2cnccc2[nH]1)c1ccc(Cl)c(Cl)c1 [1-(3,4-Dichloro-phenyl)-3-(1H-imidazo[4,5-c]pyridin-2-yl)-propan-1-one O-methyl-oxime] | 64.3
28 | CON=C(CCC(C)=O)c1ccc(Cl)c(Cl)c1 [1-(3,4-Dichloro-phenyl)-pentane-1,4-dione 1-(O-methyl-oxime)] | 77.7
29 | CON=C(CCC(=O)NC1CCNC1)c1ccc(Cl)c(Cl)c1 (centres unmarked) [4-(3,4-Dichloro-phenyl)-4-methoxyimino-N-pyrrolidin-3-yl-butyramide] | 74.3
30 | CO/N=C(\CCC(=O)OC1CCC1)c1ccc(Cl)c(Cl)c1 [4-(3,4-Dichloro-phenyl)-4-methoxyimino-butyric acid cyclobutyl ester] | 102
31 | CON=C(CCC(=O)N1CCC(C)CC1)c1ccc(Cl)c(Cl)c1 [1-(3,4-Dichloro-phenyl)-4-(4-methyl-piperidin-1-yl)-butane-1,4-dione 1-(O-methyl-oxime)] | 57.3
32 | CO/N=C(\CCC(=O)N1CCOCC1)c1ccc(Cl)c(Cl)c1 [1-(3,4-Dichloro-phenyl)-4-morpholin-4-yl-butane-1,4-dione 1-(O-methyl-oxime)] | 63.4
33 | COC(=O)CCC(=NO)c1ccc(Cl)c(Cl)c1 [4-(3,4-Dichloro-phenyl)-4-hydroxyimino-butyric acid methyl ester] | 99.4
34 | CO/N=C(\CCC(=O)OC1CCCC1)c1ccc(Cl)c(Cl)c1 [4-(3,4-Dichloro-phenyl)-4-methoxyimino-butyric acid cyclopentyl ester] | 102
35 | CNC(=O)CC/C(=N\OC)c1ccc(Cl)c(Cl)c1 [4-(3,4-Dichloro-phenyl)-4-methoxyimino-N-methyl-butyramide] | 93.7
36 | CO/N=C(\CCc1nn[nH]n1)c1ccc(Cl)c(Cl)c1 [1-(3,4-Dichloro-phenyl)-3-(2H-tetrazol-5-yl)-propan-1-one O-methyl-oxime] | 96.4
37 | CCO/N=C(\CCC(=O)OC)c1ccc(Cl)c(Cl)c1 [4-(3,4-Dichloro-phenyl)-4-ethoxyimino-butyric acid methyl ester] | 107
38 | CON=C(CCC(=O)NCCO)c1ccc(Cl)c(Cl)c1 [4-(3,4-Dichloro-phenyl)-N-(2-hydroxy-ethyl)-4-methoxyimino-butyramide] | 95.7
39 | CON=C(CCC(=O)Nc1c(C)ccnc1C)c1ccc(Cl)c(Cl)c1 [4-(3,4-Dichloro-phenyl)-N-(2,4-dimethyl-pyridin-3-yl)-4-methoxyimino-butyramide] | 85
40 | COC(=O)CCC(=NOCCNC(=O)OC(C)(C)C)c1ccc(Cl)c(Cl)c1 [4-[2-tert-Butoxycarbonylamino-ethoxyimino]-4-(3,4-dichloro-phenyl)-butyric acid methyl ester] | 56.4
41 | CON=C(CCC(=O)Nc1ccc(C)nn1)c1ccc(Cl)c(Cl)c1 [4-(3,4-Dichloro-phenyl)-4-methoxyimino-N-(6-methyl-pyridazin-3-yl)-butyramide] | 90.2
